Series [1] relates to mitochondrial reactive oxygen species (ROS). Briefly: MitoSOX assay. In kind it is cell-based. Conditions: CD1-012 10 μM or 15 μM, CCCP 10 μM, 24 hours. As for the experimental part:
(§1) It was confirmed whether the isoquinoline derivative according to the present invention induces mitochondrial dysfunction, similar to CCCP. To this end, the CD1-012 (10 μM or 15 μM) and CCCP (10 μM) were treated for 24 hours, and the mitochondrial membrane potential and mitochondrial reactive oxygen species (ROS) levels in each sample were analyzed. Mitochondrial membrane potential was analyzed using the TMRM (tetramethylrhodamine methyl ester) assay, and mitochondrial ROS levels were analyzed using the MitoSOX assay.

For series [2], the system named is BEAS-2B cell line, in which PINK1 was knocked down (shPINK1). In words: mitophagy activity in PINK1 knockdown cell line (FACS). The class given is cell-based, human. The conditions noted are these: CCCP 10 μM or CD1-012 15 μM, 18 hours. Here is the method:
In this example, it was confirmed whether the mitophagy activation function of the isoquinoline derivative according to the present invention is dependent on the PINK1-Parkin pathway. To this end, after a BEAS-2B cell line, in which PINK1 was knocked down using short hairpin RNA (shRNA), was treated with CCCP (10 μM) of Comparative Example 1 or CD1-012 (15 μM) for 18 hours, the mitophagy activity of each sample was analyzed using flow cytometry (FACS).

Series [3] deals with mitochondrial membrane potential. Briefly: TMRM assay. In kind it is cell-based. The conditions noted are these: CD1-012 10 μM or 15 μM, CCCP 10 μM, 24 hours. Here is the method:
as §1

The subject of series [4] is BEAS-2B cell line. Briefly: mitophagy activity, mt-Keima fluorescent protein (FACS, confocal microscope, mito-YFP). Conditions: BEAS-2B mt-Keima, FIG. 5. In kind it is cell-based, human. Here is the method:
To analyze the mitophagy-promoting activity effect of the CD1-012 synthesized in the Example 1, the BEAS-2B cell line, which is a human normal lung cell line, was induced to express the mt-Keima fluorescent protein. Following this, the CD1-012 (15 μM) and the compound of Comparative Example 1, CCCP (10 μM), were treated for 24 hours. After the treatment, the mitophagy activity of each sample was measured, and the results were represented in FIGS. 1A to IC.
Specifically, FIG. 1A represents the analysis results using flow cytometry (FACS) (treatment of CD1-012 at 15 µM for 24 hours), FIG. 1B represents the analysis results using a confocal microscope (treatment of CD1-012 at 15 μM for 18 hours), and FIG. 1C represents the measurement results of the quantitative changes in the mitochondria using a fluorescent protein, mito-YFP, which includes a targeting sequence to transport protein to the mitochondria (treatment of CD1-012 at 20 μM for 24 hours).
It was confirmed whether CD1-012 synthesized in Example 1 promotes mitophagy activity in a concentration- and time-dependent manner. To this end, the CD1-012 was treated at various concentrations or at a fixed concentration (15 μM) for different treatment durations in the BEAS-2B cell line expressing mt-Keima, and mitophagy activity was measured using a flow cytometer.
It was confirmed whether CD1-012 synthesized in Example 1 specifically increases only mitophagy activity. To this end, the BEAS-2B cell line expressing mt-Keima was treated with CD1-012 (15 μM) or Comparative Example 1 (CCCP, 10 μM) for 18 hours, and mitophagy activity was analyzed using a confocal microscope. Additionally, to measure autophagy activity, the BEAS-2B cell line expressing Keima fluorescent protein was incubated in Hanks' balanced salt solution (HBSS) for 3 hours to induce a starvation condition (starv.), and the results were compared with samples treated with CD1-012 (15 μM) for 18 hours using a confocal microscope.
To this end, the human normal lung cell line BEAS-2B, expressing mt-Keima fluorescent protein, was treated with CD1-012, Comparative Example 2 (palmatine), or Comparative Example 3 (berberine) at various concentrations, and the mitophagy-inducing activity of each sample was compared.

For series [5], the system named is chemotherapy-induced peripheral neuropathy mouse model. In words: vonfrey hair test, peripheral neuropathy mouse model. In kind it is in vivo. The conditions noted are these: mice, paclitaxel alone. As for the experimental part:
To more clearly verify the therapeutic effect of the isoquinoline derivative of the present invention on peripheral neuropathy, particularly chemotherapy-induced peripheral neuropathy, experiments were conducted using a peripheral neuropathy mouse model. Specifically, peripheral neuropathy was induced in mice by administration of a chemotherapeutic agent (paclitaxel), and CD1-012 was co-administered at a dose of 10 mg/kg or 20 mg/kg. Sensitivity to pain was then analyzed using the vonfrey hair test.

Series [6] relates to Drosophila larvae. Briefly: larval size after treatment. In kind it is in vivo. Conditions: Drosophila larvae, FIG. 8B. Here is the method: In addition, to evaluate whether the compound according to the present invention affects the growth of Drosophila, the size of larvae was measured after treatment with paclitaxel and CD1-012.
In series [7] the test system is C4da sensory neurons (ppk1a>CD4-tdTom Drosophila). In words: morphology of dendritic branches of C4da sensory neurons. The class given is in vivo. Conditions: paclitaxel treatment, C4da sensory neurons. From the text: To analyze the morphological changes in the dendritic branches of C4da sensory neurons, transgenic Drosophila expressing the fluorescent protein CD4-tdTomato specifically in C4da neurons (ppk^1a>CD4-tdTom) was generated. After treatment of the transgenic flies with paclitaxel and CD1-012, morphological changes in the dendritic branches of C4da sensory neurons were examined. As a result, treatment with paclitaxel increased the total dendrite length and the number of dendritic branches by 22% and 33%, respectively, confirming that morphological changes in the sensory neurons were induced.

Series [8] deals with chemotherapy-induced peripheral neuropathy mouse model. Briefly: nerve distribution in the footpad (IENFs), peripheral neuropathy mouse model. The class given is in vivo. The conditions noted are these: mice, paclitaxel alone.
In series [9] the test system is third-instar larvae of Drosophila (w1118). The class given is in vivo. Conditions: paclitaxel 20 μM 48 hours alone. Here is the method:
To this end, thermal sensitivity was measured in a Drosophila model of paclitaxel-induced peripheral neuropathy. […] As a result, after treatment with paclitaxel, hyperalgesia was observed, as indicated by a 35% reduction in withdrawal latency from 6.9 seconds to 4.5 seconds (FIG. 8A). Subsequently, to confirm the therapeutic effect of CD1-012 on peripheral neuropathy, Drosophila were treated with CD1-012 at a concentration of 1 mM along with paclitaxel (20 μM).
Subsequently, to understand the molecular mechanism underlying the therapeutic effect of CD1-012 on chemotherapy-induced peripheral neuropathy, the therapeutic effect of CD1-012 was examined after suppressing the expression of ULK1 or Rap9, which are essential genes in the recently identified alternative mitophagy pathway. To this end, a heat probe assay was performed using a 40° C. thermal probe after co-treating paclitaxel (20 μM) and CD1-012 (1 mM) in Drosophila expressing shULK1 or shRap9 in C4da sensory neurons, as well as in control Drosophila (wild-type). As a result, in the control group, the peripheral neuropathy symptoms (reduction in withdrawal latency) induced by paclitaxel were recovered by CD1-012 treatment.

As to `N#CC(C#N)=NNc1cccc(Cl)c1` [CCCP, Carbonyl cyanide 3-chlorophenylhydrazone, reference compound], the “mitochondrial ROS levels” value in [1] was “significantly increased”. In addition, the “mitophagy activation in PINK1 knockdown cell line (shPINK1) compared to control” value in series [2] was “significantly decreased”. For the same compound, in series [3], the mitochondrial membrane potential entry is “significantly reduced”.

Turning to `COc1ccc2cc3[n+](cc2c1OC)CCc1cc2c(cc1-3)OCO2` [berberine, Berberine, reference compound], the “concentration at which mitophagy activity reached its maximum (comparable level)” value in [4] worked out at 80 µM.

In the case of `CC(=O)O[C@H]1C(=O)[C@@]2(C)[C@H]([C@H](OC(=O)c3ccccc3)[C@]3(O)C[C@H](OC(=O)[C@H](O)[C@@H](NC(=O)c4ccccc4)c4ccccc4)C(C)=C1C3(C)C)[C@]1(OC(C)=O)CO[C@@H]1C[C@@H]2O` [paclitaxel, reference compound], the pain sensitivity result in series [5] is listed as “increased”. In series [6], the “reduction in larval size compared to the untreated control group” value is approximately 28%. Also, in [7], the “increase in number of dendritic branches” value stood at 33% and the “increase in total dendrite length” value is listed as 22%. In addition, the “number of peripheral nerves (intraepidermal nerve fibers: IENFs) in the footpad” value in series [8] is “reduced”. The “reduction in withdrawal latency” value in series [9] (from 6.9 seconds to 4.5 seconds) came out at 35%. For the same compound, the withdrawal latency in series [9] (heat probe 40° C., untreated 6.9 seconds) worked out at 4.5 s.

Take `COc1cc2c(cc1OC)-c1cc3ccc(OC)c(OC)c3c[n+]1CC2` [palmatine, Palmatine, reference compound]: the “concentration at which mitophagy activity reached its maximum (comparable level)” value in series [4] turned out to be 400 µM.

The values above are taken from patent US20260144783A1, “COMPOSITION FOR PREVENTING OR TREATING PERIPHERAL NEUROPATHY, CONTAINING ISOQUINOLINE DERIVATIVE AS ACTIVE INGREDIENT” (ALTMEDICAL CO., LTD., priority 2022, published 2026).
